Experimental data reported in patent publication US20100272831A1, “PROCESS FOR MANUFACTURING NANOCOMPOSITE MATERIALS FOR MULTISECTORAL APPLICATIONS” (NANOBIOMATTERS, S.L., priority 2005, published 2010).

Tests used:
[1] = Interlayer (basal) spacing of montmorillonite clay treated with expansive-type precursors/modifiers; type: physicochemical
[2] = Interlayer (basal) spacing of kaolinite clay treated with expansive-type precursors/modifiers; type: physicochemical
Excerpt: The penetration of the precursors is accelerated by means of the use of temperature, a turbulent regime homogenizer, ultrasound, pressure or a combination thereof. They can be dried by evaporation in a stove, lyophilization, centrifugation processes and/or gravimetric processes in solution or turbo-drying processes or by atomization processes.
In this example the modification process consists of a first step in which the purified kaolinite and montmorillonite clay fining agents are pretreated with an ethanol/water 50/50 (v/v) mixture at 50° C. This process was carried out together with an ultrasonic stirring treatment process for 1 hour and with stirring with a homogenizer for 2 hours to favor the intercalation of the precursor in the clay. The solvent was then removed by means of lyophilization and/or evaporation. […]

[3] = montmorillonite, spacing of the clay with the named modifier
[4] = kaolinite of Table 1, spacing of the clay with the named modifier

dMODIFIER [2, 4]	Compound	dMODIFIER [1, 3]	other results
–	CC(O)CO (stereo not drawn) [1,2-Propanediol]	1.09 nm	–
–	C=CN1CCCC1=O [Vinyl pyrrolidone]	1.23 nm	–
–	OC[C@@H](O)[C@H]1OC[C@H](O)[C@H]1O [Sorbitan]	1.09 nm	–
–	OCCOCCO [Diethylene glycol]	1.04 nm	–
–	OCC(O)CO [Glycerol]	1.02 nm	–
1.03 nm	O=C(O)CCCCC(=O)O [Adipic acid]	–	–
1.02 nm	C1CCCCC1 [Hexamethylene]	–	–
1.11 nm	C[S+](C)[O-] [Dimethyl sulfoxide (DMSO), Dimethyl sulfoxide]	–	–
–	OC[C@@H](O)[C@@H](O)[C@H](O)[C@@H](O)CO [Sorbitol]	1.19 nm	–
–	OC[C@@H](O)[C@@H](O)[C@@H](O)CO [Adonitol]	1.04 nm	–
1.20 nm	O=C(O)/C=C\C(=O)O [Maleic acid]	–	–
–	CC(O)CO (stereo not drawn) [Propylene glycol]	1.01 nm	–
–	OCCO [Ethylene glycol]	–	dMODIFIER [1]: 0.95 nm
–	CC(=O)[O-].[K+] [Potassium acetate]	–	dMODIFIER [2]: 1.39 nm
1.09 nm	O=C(OC[C@H]1O[C@@H](OC(=O)c2cc(O)c(O)c(OC(=O)c3cc(O)c(O)c(O)c3)c2)[C@H](OC(=O)c2cc(O)c(O)c(OC(=O)c3cc(O)c(O)c(O)c3)c2)[C@@H](OC(=O)c2cc(O)c(O)c(OC(=O)c3cc(O)c(O)c(O)c3)c2)[C@@H]1OC(=O)c1cc(O)c(O)c(OC(=O)c2cc(O)c(O)c(O)c2)c1)c1cc(O)c(O)c(OC(=O)c2cc(O)c(O)c(O)c2)c1 [Tannic acid]	–	–
1.01 nm	CCCC(=O)O [Butyric acid]	–	–
–	Vinyl versatate	1.11 nm	–
–	Sucrose acetoisobutyrate	1.08 nm	–
1.18 nm	O=C1CCCCCN1 [Caprolactam]	–	–
–	Calcium butyrate	0.92 nm	–
–	FC(F)=C(F)F [Tetrafluoroethylene]	–	dMODIFIER [2]: 0.98 nm
1.08 nm	CC(O)C(=O)O (stereo not drawn) [Lactic acid]	–	–
–	OCCCO [1,3-Propanediol]	0.98 nm	–
1.20 nm	O=C1C=CC(=O)O1 [Maleic anhydride]	–	–
–	OCCOCCOCCO [Triethylene glycol]	1.08 nm	–
–	Manganese butyrate	0.95 nm	–
–	O=C(O)CO [Glycolic acid]	1.06 nm	–
1.09 nm	CC(N)=O [Acetamide]	–	–
1.07 nm	O=C(O)c1ccccc1O [Salicylic acid]	–	–

Compound	dMODIFIER [2, 4]	dMODIFIER [1, 3]	other results
CC=O [Acetaldehyde]	0.91 nm	–	–
C=CC(N)=O [Archylamide]	1.14 nm	–	–
CC(=O)O [Acetic acid]	1.10 nm	–	–
NN [Anhydrous hydrazine]	0.96 nm	–	–
O [Water]	0.78 nm	–	–
CCCCCC(=O)O [Hexanoic acid]	1.23 nm	–	–
CNC=O [N-methyl formamide (NMF), N-methyl formamide]	1.02 nm	–	–
C=COC(C)=O [Vinyl acetate]	1.21 nm	–	–
NN.O [Hydrated hydrazine]	1.03 nm	–	–
Manganese acetate	1.41 nm	–	–
